Results reported in patent US20200255714A1, “HYDROFLUOROEPOXIDE CONTAINING COMPOSITIONS AND METHODS FOR USING SAME” (3M INNOVATIVE PROPERTIES COMPANY, priority 2017, published 2020).

Key:
Format in all cases: physicochemical
[1] = Kinematic viscosity by Ubbelohde capillary viscometer
Method: Kinematic Viscosity was measured using glass SCHOTT Ubbelohde capillary viscometers (Xylem, Inc., Germany). The viscometers were timed using a SCHOTT AVS 350 viscosity timer. For a temperature of 10° C., a Lawler temperature control bath was used (Lawler Manufacturing Corp., Edison, N.J., US). The viscometer measurement stand and glass viscometer were immersed in a temperature-controlled liquid bath filled with NOVEC 7500 (3M Company, Saint Paul, Minn., US) as the bath fluid. The Lawler temperature bath was fitted with a copper tubing coil for liquid nitrogen cooling with fine temperature control provided by the bath's electronic temperature control heater. The fluid was mechanically stirred to provide uniform temperature in the bath. The bath controlled temperature to within ±0.1° C., as measured by the built-in resistance temperature detector (RTD) temperature sensor. The sample liquid was added to the viscometer between the two fill lines etched on the viscometer. The AVS-350 automatically pumped the sample fluid above the upper timing mark, then released the fluid and measured the efflux times between the upper and lower timing marks. The fluid meniscus was detected by optical sensors as it passed each timing mark. The sample was drawn up and measured repeatedly, averaging multiple measurements. The glass viscometers were calibrated using Canon certified kinematic viscosity standard fluids to obtain a calibration constant (centistokes per second) for each viscometer. The measured kinematic viscosity (centistokes), was calculated as the average efflux time (seconds) times the constant (centistokes/second) for the viscometer used.

[2] = Chemical stability with absorbents at 65° C. (GC-FID); conditions: 16 hours, initial starting material 99.6
Method: The chemical stability was evaluated by charging a weighed amount of Preparatory Example PE1 into glass vials and then adding a weighed amount of absorbent. The samples were stirred with heating at 65° C. for 16 hours and then analyzed by GC-FID to determine whether any breakdown products were formed and whether the level of purity changed.

[3] = Vapor pressure by stirred-flask ebuilliometer method (ASTM E 1719-97)
Method: Vapor Pressure was measured using the stirred-flask ebuilliometer method described in ASTM E 1719-97 “Vapor Pressure Measurement by Ebuilliometry.” This method is also referred to as “Dynamic Reflux.” The method uses a 50-mL glass round-bottom flask. Vacuum was measured and controlled using a J-KEM vacuum controller (J-KEM Scientific, Saint Louis, Mo., US). The pressure transducer was calibrated on the day of measurement by comparison with full vacuum and with an electronic barometer. The procedure was to begin slowly heating the material, then vacuum was applied until boiling occurred and a steady drop wise reflux rate was established. Pot temperature and pressure reading were recorded, then the vacuum controller was set for a higher absolute pressure and the material was heated further until a new reflux point was established. The pressure level was raised in increments until the vapor pressure curve was obtained up to the atmospheric boiling point. The boiling point of PE1 at 760 mmHg was 238.3° C.

[4] = Thermal stability under air sparging at elevated temperature (GC analysis); conditions: 72 hour stir at 215° C.-220° C., sparging by air 0.4 L/min
Method: To a 3-neck 250 mL round bottom flask equipped with a water-cooled condenser, temperature probe, magnetic stir bar, and a ⅛ inch FEP tube connected to 10 micron steel frit was charged 2,3-bis(3,3,4,4,5,5,5-heptafluoro-2,2-bis(trifluoromethyl)pentyl) oxirane (70.4 g, 99 mmol). Sparging by air through the 10 micron steel frit at a rate of 0.4 L/min commenced and the internal temperature was slowly raised to 220° C. with stirring. After a 72 hour stir with the temperature held between 215° C.-220° C., the material was allowed to cool to room temperature.

FC(F)(F)C(F)(F)C(F)(F)C(CC1OC1CC(C(F)(F)F)(C(F)(F)F)C(F)(F)C(F)(F)C(F)(F)F)(C(F)(F)F)C(F)(F)F (stereo not shown) [PE1, 2,3-bis(3,3,4,4,5,5,5-heptafluoro-2,2-bis(trifluoromethyl)pentyl)oxirane]
Kinematic Viscosity ([1]; 10.0 ° C.): 146.42 cSt
Kinematic Viscosity ([1]; 25.0 ° C.): 36.22 cSt
Kinematic Viscosity ([1]; 30.0 ° C.): 25.87 cSt
Kinematic Viscosity ([1]; 40.0 ° C.): 14.49 cSt
GC-FID purity (%) ([2]; 4 Å molecular sieves): 99.6%
GC-FID purity (%) ([2]; Activated carbon): 98.4%
GC-FID purity (%) ([2]; Basic alumina): 99.7%
GC-FID purity (%) ([2]; Potassium carbonate): 99.6%
GC-FID purity (%) ([2]; Silica gel): 99.6%
Vapor pressure ([3]; 20 ° C.): 0.026 mmHg
Vapor pressure ([3]; 55 ° C.): 0.35 mmHg
Vapor pressure ([3]; 78.6 ° C.): 1.5 mmHg
Vapor pressure ([3]; 170.7 ° C.): 96.6 mmHg
Vapor pressure ([3]; 204.3 ° C.): 296.9 mmHg
Vapor pressure ([3]; 214.7 ° C.): 397.1 mmHg
Vapor pressure ([3]; 237.7 ° C.): 731.3 mmHg
boiling point ([3]; at 760 mmHg): 238.3 °C
content of starting material in final mixture (GC analysis) [4]: approximately 99.4%
decomposition (GC analysis) [4]: no decomposition
